# Test results published in patent publication US9333202B2, “Non-retinoid antagonists for treatment of age-related macular degeneration and stargardt disease” (THE TRUSTEES OF COLUMBIA UNIVERSITY IN THE CITY OF NEW YORK, priority 2012, dated 2016).
# Experiments:
# insulin sensitivity = details: mouse diabetes models; cited from earlier work
# [1] = system: lipofuscin bisretinoids (A2E, A2-DHP-PE, atRAL di-PE); assay: Bisretinoid (lipofuscin fluorophore) levels in eyecups of Abca4−/− mice by HPLC; assay type: in vivo, mouse
# Description: The Abca4−/− mouse model manifests accelerated accumulation of lipofuscin in the RPE and is considered a pre-clinical efficacy model for a drug reducing lipofuscin accumulation. […] There was approximately a 70% reduction in the serum RBP4 level in treated animals (FIG. 11). Additionally, it was discovered that that the levels of A2E/isoA2E and other bisretinoids were reduced by approximately 50% in treated mice (FIG. 12).
# Abca4/Abcr null mutant mice (albino) homozygous for Rpe65-Leu450 are bred genotyped and housed. Posterior eyecups of mice and RPE/choroids harvested from human donor eyes (National Disease Research Interchange, Philadelphia Pa.) are homogenized in phosphate buffered saline (PBS) using a glass tissue grinder and extracted in chloroform/methanol (2:1). Extracts are subsequently filtered through cotton and passed through a reverse phase cartridge (C8 Sep-Pak, Millipore) with 0.1% TFA (Aldrich Chemical Company, Milwaukee, Wis.) in methanol. […] An Alliance system (Waters, Corp, Milford, Mass.) equipped with 2695 Separation Module, 2996 Photodiode Array Detector, a 2475 Multi λ Fluorescence Detector and operating with Empower® software is used for HPLC analysis. […] HPLC quantification is carried out using the Empower® software to determine peak areas. […] Molar quantity per murine eye is determined using calibration curves constructed from known concentrations of purified external standards and by normalizing to the ratio of the HPLC injection volume (10 μL) versus total extract volume. […]
# Following euthanasia, posterior eye cups were pooled and homogenized in PBS using a tissue grinder. […] For quantification of bisretinoids of RPE lipofuscin, a Waters Alliance 2695 HPLC system was employed with an Atlantis dC18 column (Waters, 4.6 mm×150 mm, 3 μm) and the following gradient of acetonitrile in water (containing 0.1% trifluoroacetic acid): 90 to 100% from 0 to 10 min and 100% acetonitrile from 10 to 20 min, with a flow rate of 0.8 mL/min with monitoring at 430 nm. […] Levels of bisretinoid were determined by reference to external standards of HPLC-purified compound. […]
# serum RBP4 = assay: Serum RBP4 measurement (ELISA) in mice after oral dosing; assay type: in vivo, mouse
# Procedure: The Abca4−/− mouse model manifests accelerated accumulation of lipofuscin in the RPE and is considered a pre-clinical efficacy model for a drug reducing lipofuscin accumulation.
# Ten week-old Abca4 null mutant mice (129/SV×C57BL/6J) bred as previously described were used in the study. Abca4−/− (knockout) and Abca4+/+(wild-type) mice were raised under 12 h on-off cyclic lighting with an in-cage illuminance of 30-50 lux. For long-term oral dosing A1120 was formulated into Purina 5035 rodent chow at Research Diets, Inc. (New Brunswick, N.J.) to ensure consistent 30 mg/kg daily oral dosing. Animals were administered the A1120-containing chow for 6 weeks.
# Blood samples were collected from a tail vein at days 0, 21 and 42 of the A1120 dosing. Whole blood was drawn into a centrifuge tube and was let clot at room temperature for 30 min followed by centrifugation at 2,000×g for 15 minutes at +4° C. to collect serum. Serum RBP4 was measured using the RBP4 (mouse/rat) dual ELISA kit (Enzo Life Sciences) following the manufacturer's instructions.
# Blood samples collected from the treatment and control groups at baseline, Day 21 and Day 42 were used to measure serum RBP4 in order to correlate RBP4 levels with reduction in formation of lipofuscin bisretinoids. […] Levels of lipofuscin fluorophores (A2E, A2-DHP-PE and all-trans-retinal dimer-PE) were determined at the end of the 42-day treatment period using quantitative HPLC.
# RBP4-TTR interaction = RBP4-TTR interaction (Homo sapiens, UniProt P02753); assay: TR-FRET (HTRF) assay for antagonists of retinol-induced RBP4-TTR interaction, agonist and antagonist mode (Example 2); assay type: biochemical; set-up: made in house; host or cells: E. coli; details: agonist mode, dose titration
# Description: TR-FRET (Time-Resolved Fluorescence Resonance Energy Transfer) is an assay format that can be used in characterization of compounds affecting protein-protein interactions (31-33). […] In the presence of retinol, RBP4-TTR interaction induces FRET that can be registered as increased ratio of […] fluorescence signals. Binding of a desired RBP4 antagonist displaces retinol and induces hindrance for RBP4-TTR interaction resulting in the decreased FRET signal (FIG. 7).
# The assay was developed using E. coli-expressed MBP-tagged RBP4 and commercially available TTR labeled directly with Eu3+ cryptate. In addition to MBP-RBP4 and Eu3+ (K)-TTR, a detector reagent anti-MBP-d2 was present in the mix. The assay was first optimized in the agonist mode; sensitivity and dynamic range of the assay was […] in respect to RBP4, TTR and detection reagent concentrations.
# [2] = treated mice, oral 30 mg/kg (Example 3)
# [3] = Abca4−/− mice, 30 mg/kg daily oral in chow
smiles,measurement,setting,value
"O=C(O)c1ccccc1NC(=O)N1CCC(c2ccccc2C(F)(F)F)CC1 [Compound 1, 2(4-(2-(trifluoromethyl)phenyl)piperidine-1-carboxamido)benzoic acid]",Effect on insulin sensitivity,insulin sensitivity,did not improve insulin sensitivity
same,Effect on bisretinoid accumulation (in words),[1]; Abca4−/− mouse model of excessive lipofuscinogenesis,inhibits bisretinoid accumulation
same,Levels of A2-DHP-PE and atRAL di-PE,[1]; [2],also reduced
same,Reduction of levels of A2E/isoA2E and other bisretinoids,[1]; [2],approximately 50%
same,Serum RBP4 reduction at Week 3 / Day 21 compared with Day 0,serum RBP4; [3],64%
same,Serum RBP4 reduction at Week 6 / Day 42 compared with Day 0,serum RBP4; [3],75%
same,Effect on serum RBP4 levels (in words),"serum RBP4; mouse, in vivo",reduce serum REBP4 levels
same,Reduction in the serum RBP4 level,"serum RBP4; orally dosed for 3 weeks at 30 mg/kg, treated animals (Example 3)",~70%
same,Induction of RBP4-TTR interaction,RBP4-TTR interaction,did not induce RBP4-TTR interaction
